Source: PubChem BioAssay AID1159558 (GlaxoSmithKline (GSK), 2015)
Activity calls are given as the source filed them.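 Rule for the calls: active = IC50 against T. cruzi CYP51 below a set limit; inactive = the rest.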

Biological target: Sterol 14-alpha demethylase (Trypanosoma cruzi (strain CL Brener)) (UniProt Q7Z1V1)
Assay: T. cruzi sterol 14-alpha demethylase inhibition – biochemical, recombinant enzyme, mechanism study for T. cruzi antiparasitic project, dose response (AID 1159558);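 note: enzyme in bacterial membranes with Anopheles gambiae CYP reductase and cytochrome b5 partners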
Details: recombinant T. cruzi CYP51, BOMCC fluorescence

Sterol 14-alpha demethylase (Trypanosoma cruzi (strain CL Brener)), sequence (Q7Z1V1 whole entry, looked up): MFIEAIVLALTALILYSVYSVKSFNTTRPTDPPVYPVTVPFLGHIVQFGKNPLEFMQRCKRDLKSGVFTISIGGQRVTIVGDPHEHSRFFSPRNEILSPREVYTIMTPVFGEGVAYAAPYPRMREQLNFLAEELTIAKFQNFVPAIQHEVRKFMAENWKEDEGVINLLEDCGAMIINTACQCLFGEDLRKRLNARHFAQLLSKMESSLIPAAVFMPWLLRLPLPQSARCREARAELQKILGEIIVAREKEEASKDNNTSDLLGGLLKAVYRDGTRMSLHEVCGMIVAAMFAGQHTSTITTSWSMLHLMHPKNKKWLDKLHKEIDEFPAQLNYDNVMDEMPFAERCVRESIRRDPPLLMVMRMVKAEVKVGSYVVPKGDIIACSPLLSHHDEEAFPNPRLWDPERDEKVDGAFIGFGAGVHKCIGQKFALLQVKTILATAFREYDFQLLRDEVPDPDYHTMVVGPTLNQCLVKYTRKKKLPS

Structure (SMILES) | IC50
NC(=O)c1cc(F)ccc1Nc1nc(NC2CCC(O)CC2)ncc1Br (centres undefined) | 10 µM
CCOc1ccc(NC(=O)c2ccc(NC(=O)NC3CCCCC3)cc2)cc1 | > 100 µM (inactive)
O=C(N[C@H](CO)c1ccccc1)c1ccc(-c2c[nH]c3nccc(C(F)(F)F)c23)s1 | 6.3 µM
O=C1c2cnc(N3CCCC3)nc2CN1c1ccc2c(c1)OCO2 | > 100 µM (inactive)
CNS(=O)(=O)c1ccccc1Nc1nc(Nc2cc(C)nn2C)ncc1Cl | 25 µM
CCn1c(-c2nonc2N)nc2c([C@@H](C)O)ncc(O[C@H](CN)c3ccccc3)c21 | 25 µM
CC(C)Oc1cccc(N2CCC(C(=O)N3CCCN(C(C)C)CC3)CC2)c1 | > 100 µM (inactive)
Cc1nn(-c2nc3ccccc3s2)c2c1C(c1ccc(OCC(N)=O)cc1)SCC(=O)N2 (centres undefined) | > 100 µM (inactive)
Fc1ccccc1N1C[C@H]2CCN(c3cccnc3)C[C@H]2C1 | 0.063 µM
CN(C)c1ncc(-c2cncn2CCOc2ccc(Cl)cc2)cn1 | 0.05 µM
Cc1ccc(-c2csc(NC(=O)C=Cc3ccc(S(=O)(=O)N4CCOCC4)cc3)n2)o1 | 20 µM
C[C@@H](Oc1cc(-n2cnc3ccc(C(O)CO)cc32)sc1C(N)=O)c1ccccc1C(F)(F)F (some centres undefined) | 25 µM
Cn1nccc1-c1cc(OC(CN)c2ccccc2)cnc1-c1ccco1 (centres undefined) | 0.063 µM
c1ccc(CCNCc2cncc3nc(-c4cnccn4)n(C4CCCCC4)c23)cc1 | 0.1 µM
CCC(=O)Nc1ccc(C(=O)Nc2ccccc2-c2ccccc2)cc1 | > 100 µM (inactive)
CCN(Cc1cccs1)C(=O)CSc1nnc(-c2ccc3c(c2)OCO3)o1 | 7.9 µM
Oc1c(-c2n[nH]c(CCc3ccccc3)n2)ncc2cccnc12 | > 100 µM (inactive)
CCN(CC)S(=O)(=O)c1ccc(OC)c(NC(=O)c2ccc([N+](=O)[O-])s2)c1 | 32 µM
CNc1nc(C)nc(N2CCc3cc(C(=O)NCc4ccc(-c5nccn5C)cc4Cl)ccc32)n1 | 1.6 µM
Oc1c(-c2n[nH]c(Cc3ccc(Cl)cc3)n2)ncc2cccnc12 | 32 µM
Nc1nc(-c2ccccn2)nc(-n2nc(-c3ccccc3)cc2N)n1 | > 100 µM (inactive)
N#Cc1cc(N2CCCC2=O)ccc1Sc1ccccc1CO | 20 µM
COc1ccc(NS(=O)(=O)c2cc(NC(=O)c3ccc([N+](=O)[O-])s3)ccc2OC)cc1 | 1 µM
COc1ncc(-c2ccc3ncnc(N4CCOCC4)c3c2)cc1NS(C)(=O)=O | 40 µM
CCN(CC)c1nc(N(C)C)nc2c1CN(Cc1ccccc1)CC2 | 10 µM
O=C(NCC1CCCCN1C(=O)c1cccc2ccccc12)c1ccccc1 (centres undefined) | > 100 µM (inactive)

Structure (SMILES) | IC50
COc1cccc(S(=O)(=O)Nc2ccc3c(c2)CC(N2CCC(NC(=O)C4CC4)CC2)C3)c1 (centres undefined) | 63 µM
COCc1cc(Nc2ccccc2)nc(-c2ccccn2)n1 | > 100 µM (inactive)
CNc1cc(C)nc(C2CN(C(=O)c3n[nH]c4ccccc34)CCO2)c1 (centres undefined) | > 100 µM (inactive)
CCN(Cc1nc2ccc(C(=O)N3CCN(c4ncccn4)CC3)cc2[nH]1)C1CCCc2cccnc21 (centres undefined) | 7.9 µM
O=C(Nc1ccc(Br)c(Cl)c1)Nc1ccc2c(c1)OCO2 | > 100 µM (inactive)
Clc1ccc(OCCN2CCCCC2c2cccnc2)c(Cl)c1 (centres undefined) | 0.063 µM
O=C(Nc1ncc([N+](=O)[O-])s1)C1CC1 | > 100 µM (inactive)
OCC1CCCCN1c1cc(-c2ccccn2)nc(Nc2ccccc2)n1 (centres undefined) | 79 µM
Cc1nc2c(-c3ncn[nH]3)cc(NC(=O)Cc3ccccc3)cn2c1C | 10 µM
O=c1oc2ccccc2n1C1CCN(Cc2ccccc2-c2cccnc2)CC1 | 0.1 µM
O=C(Nc1nc2cc(Cl)ccc2o1)c1cccc(Cl)c1 | > 100 µM (inactive)
COc1ccc(NC(=O)c2ccc(NC(=O)CN(c3ccccc3C)S(C)(=O)=O)cc2)cc1 | 6.3 µM
C[C@@H](Oc1cc(-n2cnc3ccc(CC(O)CO)cc32)sc1C(N)=O)c1ccccc1Cl (some centres undefined) | 25 µM
CCCn1c(NC(=O)Cc2ccc(Cl)cc2)nc2ccccc21 | > 100 µM (inactive)
O=C(Cc1ccc2c(c1)CCC2)Nc1n[nH]c(-c2ccccn2)n1 | 2.5 µM
CS(=O)(=O)c1cccc(CNC(=O)c2cncc(N3CCN(c4ccc(F)cc4)CC3)c2)c1 | 13 µM
O=C1OCc2ccc(Nc3nccc(-c4cnn5ncccc45)n3)cc21 | > 100 µM (inactive)
CC(=O)NC1(c2ccccc2)CCN(CC(=O)Nc2ccccc2-c2ccccc2)CC1 | 50 µM
O=C(NCCc1ccccn1)C(c1cn[nH]c1)N1CCN(c2ccc(Cl)c(Cl)c2)CC1 (centres undefined) | 0.13 µM
NCC(Cc1ccccc1)NC(=O)c1cnc(-c2c[nH]c3ncccc23)s1 (centres undefined) | 1 µM
CC1(C)CCC(=Cc2ccc(Cl)cc2)CC1(O)Cn1ccnc1 (centres undefined) | 0.05 µM
CC(C)S(=O)(=O)c1ccc(-c2cnc(N)c3cc(-c4ccnc(N)n4)ccc23)cc1 | 16 µM
Cc1cc(Nc2ccc(C#N)c(Cl)c2C)n[nH]1 | 40 µM
CN(C)Cc1ccc(N2CCC(NS(=O)(=O)c3ccc(Cl)cc3)CC2)cc1 | > 100 µM (inactive)
CCC1Oc2cc(S(=O)(=O)N(C)CC(=O)N3CCc4ccccc4C3)c(C)cc2NC1=O (centres undefined) | 0.79 µM
CN(C)S(=O)(=O)c1cccc(CSc2nnc(-c3ccc4c(c3)OCO4)o2)c1 | 13 µM

Structure (SMILES) | IC50
COc1ccc(Nc2nccc(N(C)c3n[nH]c4c(F)cccc34)n2)cc1S(C)(=O)=O | 32 µM
O=C(NCCc1csc(-c2cccc(F)c2)n1)c1ccco1 | > 100 µM (inactive)
COc1ccc(NS(=O)(=O)c2cc(NC(=O)Cc3ccc(C)cc3)ccc2N2CCOCC2)cc1 | > 100 µM (inactive)
COc1cc(Cl)c(C)cc1NC(=O)c1ccc([N+](=O)[O-])s1 | 16 µM
CC(=O)Nc1ccc(-c2cnc(N)c(-c3nc4ccc(F)cc4[nH]3)c2)cc1 | 63 µM
CS(=O)(=O)c1ccccc1C(=O)N(Cc1ccccc1)c1ccccc1 | 20 µM
Cc1cc2cncn2c(C2CCCCN2C(=O)c2cccs2)n1 (centres undefined) | 0.1 µM
CCc1cc(C(=O)Nc2nccn2-c2ccccc2)cs1 | > 100 µM (inactive)
Cc1ccc2onc(Nc3ccnc(Nc4cccc(S(C)(=O)=O)c4)n3)c2c1 | 40 µM
O=c1ccc2ccc(F)c3c2n1C[C@H]3CN1CCN(CC(O)c2cc3c(cn2)OCS3)CC1 (some centres undefined) | > 100 µM (inactive)
O=C(COc1nn(-c2ccccc2)c2ncccc12)NCc1ccccc1 | 6.3 µM
O=C(CSc1nnc(-c2ccc3c(c2)OCO3)o1)N(Cc1ccco1)CC(F)(F)F | 25 µM
CN(CCOc1ccc(Cl)cc1)Cc1nc(N)nc(N(C)C)n1 | 32 µM
Cc1cc(NC(=O)c2ccc([N+](=O)[O-])s2)ccc1Br | 10 µM
O=C(NC(c1ccc(Cl)cc1)c1cnccn1)C1CCN(C(=O)Nc2cccc(C(F)(F)F)c2)CC1 (centres undefined) | 0.13 µM
Cc1cc2nc(N3CC[C@H]3C(N)=O)nc(Nc3cc(C4CC4)[nH]n3)c2s1 | > 100 µM (inactive)
Cc1cccnc1NC(=O)c1cccc(OCc2c(C)noc2C)c1 | 50 µM
CCCN1CCN(Cc2ccc(S(=O)(=O)Nc3cccc(C)c3)cc2)CC1 | > 100 µM (inactive)
Cc1cc(Br)sc1CNCCCNc1cc(=O)c2ccccc2[nH]1 | 63 µM
O=c1[nH]c(C=Cc2cccc(OCCOc3ccccc3)c2)nc(O)c1[N+](=O)[O-] | > 100 µM (inactive)
O=C1CN(C(=O)c2cccc(Nc3ncc(-c4ccc5c(c4)OCO5)cn3)c2)CCN1 | 25 µM
O=C(c1cc2cc(Cl)ccc2[nH]1)N1CCCCC1c1cccnc1 (centres undefined) | 0.063 µM
Cc1occc1C(=O)Nc1ccccc1C(=O)Nc1nccs1 | > 100 µM (inactive)
N#Cc1ccc(C(=O)Nc2cccc(-c3cccc(CN4CCC(O)CC4)c3)c2)cc1 | 25 µM
C[C@@H](Oc1cc(-n2cnc3cc(N)ccc32)sc1C(N)=O)c1ccccc1Cl | 3.2 µM
N#Cc1cc([N+](=O)[O-])ccc1NC1CCCCCC1 | > 100 µM (inactive)

Structure (SMILES) | IC50
CCOc1cnn(C)c(=O)c1Nc1ccc(C(=O)NCc2ccc(F)cc2)cc1 | 4 µM
O=C1COC(c2ccccc2)(c2ccccc2)CN1C1CCN(Cc2ccc(-n3ccnc3)cc2)CC1 | 0.079 µM
Cc1ccccc1OCC(=O)N1CCCN(c2cccnn2)CC1 | 0.079 µM
CC(C)c1sc(Cl)nc1C(=O)NCCc1nc(C(=O)Nc2ccc3c(c2)OCO3)cs1 | 7.9 µM
Cc1nnnn1-c1cccc(C(=O)N2CCC[C@@]3(C)c4ncncc4CCC23)c1 (some centres undefined) | 25 µM
O=C(Nc1cccc(Cl)c1)N1CCCCC1c1cccnc1 (centres undefined) | 0.02 µM
COc1ccc(OC)c(NC(=O)c2ccc([N+](=O)[O-])o2)c1 | 10 µM
Cc1ccc(C)c(OC2CCN(C(=O)C(C)n3ccnc3)CC2)c1 (centres undefined) | 0.1 µM
CCCCc1cc(Nc2cc(C3CCC3)[nH]n2)nc(N2CCC2C(N)=O)n1 (centres undefined) | > 100 µM (inactive)
COc1cccc(NS(=O)(=O)c2ccc3[nH]cc(C(=O)NCCC(C)C)c(=O)c3c2)c1 | 6.3 µM
Cc1cccc(NS(=O)(=O)c2cnc3sc(C)cn3c2=O)c1 | > 100 µM (inactive)
c1ccc2c(CCOc3nccnc3-c3ccncc3)c[nH]c2c1 | 0.063 µM
CN(Cc1cccnc1)Cc1ccc(N2CCN(C(=O)C3(c4ccc(Cl)cc4)CC3)CC2)nc1 | 0.16 µM
COc1ccc(C2C3CCCCC3(O)CCN2CC(=O)Nc2ccc(Cl)cc2Cl)cc1 (centres undefined) | 10 µM
O=c1[nH]c(NCCCNCc2cc(Br)cc(Br)c2)nc2ccsc12 | 32 µM
COc1ccc(-c2csc(NC(=O)c3ccc([N+](=O)[O-])s3)n2)cc1 | > 100 µM (inactive)
COc1ccc(C2CC(c3ccc(NS(C)(=O)=O)cc3)=NN2C(=O)c2cccs2)cc1OC (centres undefined) | 13 µM
Cc1cc2ncn(-c3ccc([N+](=O)[O-])cc3C#N)c2cc1C | > 100 µM (inactive)
Clc1ccc(Sc2cnccc2N2CCOCC2)cc1 | 0.032 µM
Cc1cc(C)cc(NS(=O)(=O)c2cc(-c3cc(C)[nH]n3)ccc2C)c1 | 7.9 µM
COc1ccccc1C(=O)Nc1nnc(-c2ccc3c(c2)OCO3)s1 | > 100 µM (inactive)
Cc1nc(-c2ccncc2)ncc1C(C)NC(=O)c1ccc(Cl)s1 (centres undefined) | 0.79 µM
Clc1cc(Br)ccc1OCCCCn1ccnc1 | 0.063 µM
Cc1cc(C#N)c([N+](=O)[O-])cc1Br | 7.9 µM
Cc1ccc2c(c1)-c1onc(C(=O)N3CCCCC3c3cccnc3)c1CO2 (centres undefined) | 0.1 µM
c1ccc2[nH]c(-c3ccc(N4CCCC4)nc3)nc2c1 | > 100 µM (inactive)
